Measurements reported in PMC11839854, “Exploration of (R)-[^11C]YH168 as a PET tracer for imaging monoacylglycerol lipase in the brain: from mice to non-human primates” (European Journal of Nuclear Medicine and Molecular Imaging, 2024).

Experiments:
Assay type in all cases: biochemical
[1] = molecular target: T1, monoacylglycerol lipase (MAGL) (Homo sapiens, UniProt Q99685); assay: enzymatic inhibition assay with human MAGL protein
T1 construct: gene MGLL
T1 sequence (Q99685 1-303): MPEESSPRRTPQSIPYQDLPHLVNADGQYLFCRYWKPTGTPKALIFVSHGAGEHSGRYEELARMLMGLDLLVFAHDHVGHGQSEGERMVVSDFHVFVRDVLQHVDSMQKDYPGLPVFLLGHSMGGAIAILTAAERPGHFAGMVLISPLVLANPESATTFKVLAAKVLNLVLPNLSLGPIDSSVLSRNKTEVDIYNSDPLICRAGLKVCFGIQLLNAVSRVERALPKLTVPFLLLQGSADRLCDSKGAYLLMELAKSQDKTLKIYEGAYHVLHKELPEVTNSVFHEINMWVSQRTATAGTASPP

[2] = molecular target: T2, monoacylglycerol lipase (MAGL) (Macaca fascicularis, UniProt A0A2K5V664); assay: enzymatic inhibition assay with cynomolgus monkey MAGL protein
T2 sequence (A0A2K5V664 1-352): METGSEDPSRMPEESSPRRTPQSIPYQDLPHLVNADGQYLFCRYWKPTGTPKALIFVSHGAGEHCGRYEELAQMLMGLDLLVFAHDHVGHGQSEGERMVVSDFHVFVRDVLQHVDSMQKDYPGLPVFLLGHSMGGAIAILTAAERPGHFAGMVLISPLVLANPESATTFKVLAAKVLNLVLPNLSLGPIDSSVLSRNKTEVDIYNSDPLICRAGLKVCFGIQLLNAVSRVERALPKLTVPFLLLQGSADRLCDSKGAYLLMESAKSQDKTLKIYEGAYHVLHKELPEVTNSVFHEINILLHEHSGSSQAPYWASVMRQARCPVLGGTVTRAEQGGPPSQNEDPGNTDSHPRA

[3] = molecular target: T3, monoacylglycerol lipase (MAGL) (Mus musculus, UniProt O35678); assay: enzymatic inhibition assay with mouse MAGL protein; supported by autoradiography and PET in wild-type vs MAGL knockout mice
T3 construct: gene Mgll
T3 sequence (O35678 1-303): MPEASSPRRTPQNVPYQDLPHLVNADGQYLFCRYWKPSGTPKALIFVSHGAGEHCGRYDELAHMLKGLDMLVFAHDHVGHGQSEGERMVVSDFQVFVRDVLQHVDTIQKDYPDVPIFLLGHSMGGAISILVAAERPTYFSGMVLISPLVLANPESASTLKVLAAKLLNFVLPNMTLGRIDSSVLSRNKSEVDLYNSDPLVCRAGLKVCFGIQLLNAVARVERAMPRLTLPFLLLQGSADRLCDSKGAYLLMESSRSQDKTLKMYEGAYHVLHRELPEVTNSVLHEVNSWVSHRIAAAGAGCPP

IC50 [1]: 4 nM
IC50 [2]: 2.7 nM
IC50 [3]: 3.8 nM
Compound: Cc1cccc(-c2ccc(N3C[C@H](N4CCN(C(=O)c5ccco5)CC4)CC3=O)cc2)c1 [(R)-YH168]
